Source: ChEMBL document CHEMBL1201862, “PubChem BioAssay data set” (2004)
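Interpolation was linear, between the two tested concentrations surrounding the appropriate level; five concentrations were tested over 48 hours in 96-well plates. GI50: concentration for 50% inhibition of growth.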 Calls of active or inactive are those of the source. Rule as the data show it: active = GI50 up to about 1.1 µM and inactive = higher.

Legend:
Experiment in all cases: inhibition of tumour cell growth, NCI panel, 48 h
[1] = system: Hs-578T
[2] = system: K562
[3] = system: DU-145
[4] = system: MDA-MB-231
[5] = system: UACC-257
[6] = system: RPMI-8226
[7] = system: M14
[8] = system: HCT-116
[9] = system: SR
[10] = system: COLO 205
[11] = system: MOLT-4
[12] = system: SK-MEL-28
[13] = system: PC-3
[14] = system: Malme-3M
[15] = system: NCI-H460
[16] = system: NCI-H522
[17] = system: UO-31
[18] = system: LOX IMVI
[19] = system: HT-29
[20] = system: HOP-62
[21] = system: HOP-92
[22] = system: SNB-75
[23] = system: SF-295
[24] = system: CCRF-CEM
[25] = system: EKVX
[26] = system: HCC 2998
[27] = system: OVCAR-3
[28] = system: TK-10
[29] = system: OVCAR-4
[30] = system: HCT-15
[31] = system: U-251
[32] = system: A498
[33] = system: SW-620
[34] = system: SF-268
[35] = system: MCF7
[36] = system: OVCAR-8
[37] = system: T47D
[38] = system: NCI-H23
[39] = system: IGROV-1
[40] = system: SF-539
[41] = system: SK-MEL-5
[42] = system: KM12
[43] = system: SN12C
[44] = system: OVCAR-5
[45] = system: NCI-H226
[46] = system: MDA-N
[47] = system: 786-0
[48] = system: CAKI-1
[49] = system: SNB-19
[50] = system: BT-549
[51] = system: UACC-62
[52] = system: SK-MEL-2
[53] = system: NCI/ADR-RES
[54] = system: RXF 393
[55] = system: MDA-MB-435
[56] = system: A549
[57] = system: SK-OV-3
[58] = system: ACHN
[59] = system: HL-60

SMILES: COc1cc2c(cc1OCc1ccccc1)NC(=O)[C@@H]1C[C@@H](O)CN1C2=O
- GI50 [1]: > 100 µM (inactive)
- GI50 [2]: > 100 µM (inactive)
- GI50 [3]: > 100 µM (inactive)
- GI50 [4]: 75 µM (inactive)
- GI50 [5]: > 100 µM (inactive)
- GI50 [6]: > 100 µM (inactive)
- GI50 [7]: > 100 µM (inactive)
- GI50 [8]: > 100 µM (inactive)
- GI50 [9]: 47 µM (inactive)
- GI50 [10]: > 100 µM (inactive)
- GI50 [11]: > 100 µM (inactive)
- GI50 [12]: > 100 µM (inactive)
- GI50 [13]: > 100 µM (inactive)
- GI50 [14]: > 100 µM (inactive)
- GI50 [15]: > 100 µM (inactive)
- GI50 [16]: > 100 µM (inactive)
- GI50 [17]: > 100 µM (inactive)
- GI50 [18]: > 100 µM (inactive)
- GI50 [19]: > 100 µM (inactive)
- GI50 [20]: 47.6 µM (inactive)
- GI50 [21]: > 100 µM (inactive)
- GI50 [22]: 35.6 µM (inactive)
- GI50 [23]: > 100 µM (inactive)
- GI50 [24]: > 100 µM (inactive)
- GI50 [25]: > 100 µM (inactive)
- GI50 [26]: > 100 µM (inactive)
- GI50 [27]: > 100 µM (inactive)
- GI50 [28]: > 100 µM (inactive)
- GI50 [29]: > 100 µM (inactive)
- GI50 [30]: > 100 µM
- GI50 [31]: > 100 µM (inactive)
- GI50 [32]: > 100 µM (inactive)
- GI50 [33]: > 100 µM (inactive)
- GI50 [34]: > 100 µM (inactive)
- GI50 [35]: > 100 µM (inactive)
- GI50 [36]: > 100 µM (inactive)
- GI50 [37]: > 100 µM (inactive)
- GI50 [38]: > 100 µM (inactive)
- GI50 [39]: > 100 µM (inactive)
- GI50 [40]: > 100 µM (inactive)
- GI50 [41]: > 100 µM (inactive)
- GI50 [42]: > 100 µM (inactive)
- GI50 [43]: > 100 µM (inactive)
- GI50 [44]: > 100 µM (inactive)
- GI50 [45]: > 100 µM (inactive)
- GI50 [46]: > 100 µM (inactive)
- GI50 [47]: > 100 µM (inactive)
- GI50 [48]: > 100 µM (inactive)
- GI50 [49]: > 100 µM (inactive)
- GI50 [50]: > 100 µM (inactive)
- GI50 [51]: > 100 µM (inactive)
- GI50 [52]: > 100 µM (inactive)
- GI50 [53]: > 100 µM (inactive)
- GI50 [54]: > 100 µM (inactive)
- GI50 [55]: > 100 µM (inactive)
- GI50 [56]: > 100 µM (inactive)
- GI50 [57]: > 100 µM (inactive)
- GI50 [58]: > 100 µM (inactive)

SMILES: O=C1C[S+]([O-])C23c4cc5ccccc5n4CCC2CCCN13 (configuration not stated)
- GI50 [1]: > 100 µM (inactive)
- GI50 [2]: > 100 µM (inactive)
- GI50 [3]: > 100 µM (inactive)
- GI50 [4]: > 100 µM (inactive)
- GI50 [5]: > 100 µM (inactive)
- GI50 [6]: > 100 µM (inactive)
- GI50 [7]: > 100 µM (inactive)
- GI50 [8]: > 100 µM (inactive)
- GI50 [9]: > 100 µM (inactive)
- GI50 [10]: > 100 µM (inactive)
- GI50 [11]: > 100 µM (inactive)
- GI50 [12]: > 100 µM (inactive)
- GI50 [13]: > 100 µM (inactive)
- GI50 [14]: > 100 µM (inactive)
- GI50 [16]: > 100 µM (inactive)
- GI50 [18]: > 100 µM (inactive)
- GI50 [19]: > 100 µM (inactive)
- GI50 [20]: > 100 µM (inactive)
- GI50 [21]: > 100 µM (inactive)
- GI50 [23]: > 100 µM (inactive)
- GI50 [25]: > 100 µM (inactive)
- GI50 [27]: > 100 µM (inactive)
- GI50 [28]: > 100 µM (inactive)
- GI50 [29]: > 100 µM (inactive)
- GI50 [30]: > 100 µM
- GI50 [59]: > 100 µM (inactive)
- GI50 [31]: > 100 µM (inactive)
- GI50 [32]: > 100 µM (inactive)
- GI50 [33]: > 100 µM (inactive)
- GI50 [34]: > 100 µM (inactive)
- GI50 [35]: > 100 µM (inactive)
- GI50 [36]: > 100 µM (inactive)
- GI50 [37]: > 100 µM (inactive)
- GI50 [38]: > 100 µM (inactive)
- GI50 [39]: > 100 µM (inactive)
- GI50 [40]: > 100 µM (inactive)
- GI50 [41]: > 100 µM (inactive)
- GI50 [42]: > 100 µM (inactive)
- GI50 [43]: > 100 µM (inactive)
- GI50 [44]: > 100 µM (inactive)
- GI50 [45]: > 100 µM (inactive)
- GI50 [46]: > 100 µM (inactive)
- GI50 [47]: > 100 µM (inactive)
- GI50 [48]: > 100 µM (inactive)
- GI50 [49]: > 100 µM (inactive)
- GI50 [50]: > 100 µM (inactive)
- GI50 [51]: > 100 µM (inactive)
- GI50 [52]: > 100 µM (inactive)
- GI50 [53]: > 100 µM (inactive)
- GI50 [54]: > 100 µM (inactive)
- GI50 [55]: > 100 µM (inactive)
- GI50 [56]: > 100 µM (inactive)
- GI50 [57]: > 100 µM (inactive)
- GI50 [58]: > 100 µM (inactive)
